Reference: patent US9957264B2 (Merck Sharp & Dohme Corp., priority 2013, dated 2018)

Tests used:
[1] = target: JAK1 (recombinant purified GST-tagged catalytic domain) (Homo sapiens (Human), UniProt P23458); experiment: Jak Biochemical HTRF Assay (JAK1); settings: [ATP] 31.8 μM
How it was run: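 Compounds in DMSO were pre-equilibrated with enzyme and biotinylated peptide, then ATP was added and the reaction proceeded 120 min at room temperature. EDTA-based stop buffer with detection reagents was added, and after 60 min the time-resolved FRET ratio was read. IC50s came from 4-parameter dose–response fits.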

[2] = target: JAK2 (recombinant purified GST-tagged catalytic domain) (Homo sapiens (Human), UniProt O60674); experiment: Jak Biochemical HTRF Assay (JAK2); settings: [ATP] 8.5 μM
Chain of JAK2 (recombinant purified GST-tagged catalytic domain) (O60674 849-1124): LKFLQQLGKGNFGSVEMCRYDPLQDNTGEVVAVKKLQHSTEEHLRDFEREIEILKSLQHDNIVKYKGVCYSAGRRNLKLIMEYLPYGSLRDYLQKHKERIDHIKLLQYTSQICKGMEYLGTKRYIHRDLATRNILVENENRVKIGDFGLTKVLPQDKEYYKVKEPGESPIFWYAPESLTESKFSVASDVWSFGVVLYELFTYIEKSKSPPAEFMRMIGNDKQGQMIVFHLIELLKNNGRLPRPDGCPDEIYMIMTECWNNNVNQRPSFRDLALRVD

Chain of JAK1 (recombinant purified GST-tagged catalytic domain) (P23458 875-1153): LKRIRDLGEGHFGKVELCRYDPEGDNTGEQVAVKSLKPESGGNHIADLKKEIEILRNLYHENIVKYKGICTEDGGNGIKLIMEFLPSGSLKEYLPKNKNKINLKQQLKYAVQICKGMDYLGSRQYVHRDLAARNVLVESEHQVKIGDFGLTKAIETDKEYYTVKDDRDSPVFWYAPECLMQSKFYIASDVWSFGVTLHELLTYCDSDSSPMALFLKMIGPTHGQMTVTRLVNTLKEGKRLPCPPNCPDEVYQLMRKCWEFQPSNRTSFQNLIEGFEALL

SMILES | IC50 [1] | IC50 [2]
Cc1ccc2cc(Nc3nn([C@]4(CC#N)CC[C@@H](C(=O)OC(C)(C)C)OC4)c4cc[nH]c(=O)c34)ccc2n1 [Example 5-217, (2S,5S)-tert-butyl 5-(cyanomethyl)-5-(3-((2-methylquinolin-6-yl)amino)-4-oxo-4,5-dihydro-1H-pyrazolo[4,3-c]pyridin-1-yl)tetrahydro-2H-pyran-2-carboxylate] | 0.07 nM | 0.77 nM
CN(C)S(=O)(=O)c1ccc(Nc2nn(C3(CC#N)CCN(C(=O)OCC(C)(C)C)CC3)c3cc[nH]c(=O)c23)cc1 [Example 10-4, neopentyl 4-(cyanomethyl)-4-(3-((4-(N,N-dimethylsulfamoyl)phenyl)amino)-4-oxo-4,5-dihydro-1H-pyrazolo[4,3-c]pyridin-1-yl)piperidine-1-carboxylate] | 0.45 nM | 3.08 nM
CC(C)(C)OC(=O)[C@@H]1CC[C@@](CC#N)(n2nc(Nc3ccc(C(N)C(F)(F)F)cc3)c3c(=O)[nH]ccc32)CO1 (stereo partly drawn) [Example 5-104, (2S,5S)-tert-butyl 5-(3-((4-(1-amino-2,2,2-trifluoroethyl)phenyl)amino)-4-oxo-4,5-dihydro-1H-pyrazolo[4,3-c]pyridin-1-yl)-5-(cyanomethyl)tetrahydro-2H-pyran-2-carboxylate] | 0.07 nM | 0.27 nM
COC(=O)N1CCC(CC#N)(n2nc(Nc3ccc4c(c3)CN(CC3CC3)S4(=O)=O)c3c(=O)[nH]ccc32)CC1 [Example 5-74, methyl 4-(cyanomethyl)-4-(3-{[2-(cyclopropylmethyl)-1,1-dioxo-2,3-dihydro-1,2-benzothiazol-5-yl]amino}-4-oxo-1H,4H,5H-pyrazolo [4,3-c]pyridin-1-yl) piperidine-1-carboxylate] | 0.06 nM | 0.27 nM
CC(C)(C)N1Cc2cc(Nc3nn([C@]4(CC#N)CCOC4)c4cc[nH]c(=O)c34)ccc2S1(=O)=O (single isomer, unassigned) [Example 5-248, (R or S)-2-(3-(3-((2-(tert-butyl)-1,1-dioxido-2,3-dihydrobenzo[d]isothiazol-5-yl)amino)-4-oxo-4,5-dihydro-1H-pyrazolo[4,3-c]pyridin-1-yl)tetrahydrofuran-3-yl)acetonitrile] | 0.39 nM | 9.56 nM
N#CCC1(n2nc(Nc3ccc(S(=O)(=O)N4CCC4)cc3)c3c(=O)[nH]ccc32)CCCC1 [Example 5-132, 2-(1-(3-((4-(azetidin-1-ylsulfonyl)phenyl)amino)-4-oxo-4,5-dihydro-1H-pyrazolo[4,3-c]pyridin-1-yl)cyclopentyl)acetonitrile] | 0.39 nM | 0.68 nM
Cc1cc(Nc2nn([C@]3(CC#N)CCCOC3)c3cc[nH]c(=O)c23)ccc1C(=O)N1CCOCC1 [Example 5-118, (S)-2-(3-(3-((3-methyl-4-(morpholine-4-carbonyl)phenyl)amino)-4-oxo-4,5-dihydro-1H-pyrazolo[4,3-c]pyridin-1-yl)tetrahydro-2H-pyran-3-yl)acetonitrile] | 0.34 nM | 0.76 nM
CC(C)(C)OC(=O)N1CCC(CC#N)(n2nc(Nc3ccc4c(c3)CNC4)c3c(=O)[nH]ccc32)CC1 [Example 5-66, tert-butyl 4-(cyanomethyl)-4-(3-(isoindolin-5-ylamino)-4-oxo-4,5-dihydropyrazolo[4,3-c]pyridin-1-yl)piperidine-1-carboxylate] | 0.26 nM | 0.43 nM
N#CCC1(n2nc(Nc3ccc(S(=O)(=O)C(F)F)cc3)c3c(=O)[nH]ccc32)CCN(c2ccc(C#N)cn2)CC1 [Example 15-3, 6-(4-(cyanomethyl)-4-(3-((4((difluoromethyl)sulfonyl)phenyl)amino)-4-oxo-4,5-dihydro-1H-pyrazolo[4,3-c]pyridin-1-yl)piperidin-1-yl)nicotinonitrile] | 0.25 nM | 0.26 nM
N#CC[C@@]1(n2nc(Nc3cc(F)c4nccc(Cl)c4c3)c3c(=O)[nH]ccc32)CCOC1 (single isomer, unassigned) [Example 5-243, [(3R or 3S)-3-{3-[(4-chloro-8-fluoroquinolin-6-yl)amino]-4-oxo-4,5-dihydro-1H-pyrazolo[4,3-c]pyridin-1-yl}tetrahydrofuran-3-yl]acetonitrile] | 6.62 nM | 100 nM
CN(C)S(=O)(=O)c1ccc(Nc2nn(C3(CC#N)CCN(Cc4c(F)ccc(F)c4F)CC3)c3cc[nH]c(=O)c23)cc1 [Example 8-11, 4-({1-[4-(cyanomethyl)-1-(2,3,6-trifluorobenzyl)piperidin-4-yl]-4-oxo-4,5-dihydro-1H-pyrazolo[4,3-c]pyridin-3-yl}amino)-N,N-dimethylbenzenesulfonamide] | 0.24 nM | 0.28 nM
CCNC(c1ccc(Nc2nn([C@]3(CC#N)CC[C@@H](C(=O)OC(C)(C)C)OC3)c3cc[nH]c(=O)c23)cc1)C(F)(F)F (single isomer, unassigned) [Example 5-207, (2S,5S)-tert-butyl 5-(cyanomethyl)-5-(3-((4-((R or S)-1-(ethylamino)-2,2,2-trifluoroethyl)phenyl)amino)-4-oxo-4,5-dihydro-1H-pyrazolo[4,3-c]pyridin-1-yl)tetrahydro-2H-pyran-2-carboxylate] | 0.19 nM | 0.26 nM

The remaining lines, values ahead:

IC50 [1] | IC50 [2] | SMILES
0.09 nM | 5.87 nM | COC1CN([C@H]2CC[C@](CC#N)(n3nc(Nc4ccc(Cl)c(F)c4)c4c(=O)[nH]ccc43)CC2)C1 [Example 18-24, Trans 2-(1-(3-((4-chloro-3-fluorophenyl)amino)-4-oxo-4,5-dihydro-1H-pyrazolo[4,3-c]pyridin-1-yl)-4-(3-methoxyazetidin-1-yl)cyclohexyl)acetonitrile]
0.38 nM | 1.03 nM | CO[C@@H](c1ccc(Nc2nn([C@]3(CC#N)CC[C@@H](C(=O)OC(C)(C)C)OC3)c3cc[nH]c(=O)c23)cc1)C(F)(F)F (single isomer, unassigned) [Example 21-8, (2S,5S)-tert-butyl 5-(cyanomethyl)-5-(4-oxo-3-((4-((S or R)-2,2,2-trifluoro-1-methoxyethyl)phenyl)amino)-4,5-dihydro-1H-pyrazolo[4,3-c]pyridin-1-yl)tetrahydro-2H-pyran-2-carboxylate]
1.71 nM | 32.4 nM | N#CC[C@]1(n2nc(Nc3ccc(Cl)cc3)c3c(=O)[nH]ccc32)CC[C@H](Nc2ccccc2)CC1 [Example 18-14, Trans 2-(1-(3-((4-chlorophenyl)amino)-4-oxo-4,5-dihydro-1H-pyrazolo[4,3-c]pyridin-1-yl)-4-(phenylamino)cyclohexyl)acetonitrile]
70.2 nM | > 1500 nM | N#CC[C@]1(n2nc(Nc3ccc(Cl)c(F)c3)c3c(=O)[nH]ccc32)CC[C@@H](Nc2ccccc2)CC1 [Example 18-25, Cis 2-(1-(3-((4-chloro-3-fluorophenyl)amino)-4-oxo-4,5-dihydro-1H-pyrazolo[4,3-c]pyridin-1-yl)-4-(phenylamino)cyclohexyl)acetonitrile]
0.09 nM | 0.36 nM | Cc1cc(Nc2nn([C@]3(CC#N)CC[C@@H](C(=O)OC(C)(C)C)OC3)c3cc[nH]c(=O)c23)ccc1C(=O)N1CCCC1 [Example 20-7, (2S,5S)-tert-butyl 5-(cyanomethyl)-5-(3-((3-methyl-4-(pyrrolidine-1-carbonyl)phenyl)amino)-4-oxo-4,5-dihydro-1H-pyrazolo[4,3-c]pyridin-1-yl)tetrahydro-2H-pyran-2-carboxylate]
